Measured values as given in ChEMBL document CHEMBL1201862, “PubChem BioAssay data set” (2004).
Activity calls are given as the source filed them.

Experiments:
[1] = target: FAD-linked sulfhydryl oxidase ALR (Homo sapiens, UniProt P55789); test: ALR-catalysed DTT oxidation blockers – biochemical, H2O2 detection, luminescence, cherry-pick, dose response (AID 493248)
[2] = reduction of Shn3 3'UTR-driven luciferase in osteoblasts – cell-based, Clone20 osteoblasts, firefly luciferase, cherry-picked, dose response (AID 624132); type: functional;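 further: firefly luciferase luminescence from reporter carrying the Shn3 3'UTR in osteoblasts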
[3] = non-specific 3'UTR reporter inhibition in Clone20-Shn3RL – cell-based, Renilla luciferase, cherry-picked, counter-screen for Shn3 inhibitor project, dose response (AID 624133); type: functional
[4] = target: Beta Lactamase (Pseudomonas aeruginosa, UniProt Q932Y6); test: BLA reporter interference, concentration series – BLA reporter cells, FRET fluorescence, artefact control for NOD2-RIPK2 interaction inhibitor project, dose response (AID 651552); type: functional, cell-based
Beta Lactamase, sequence (Q932Y6 whole entry): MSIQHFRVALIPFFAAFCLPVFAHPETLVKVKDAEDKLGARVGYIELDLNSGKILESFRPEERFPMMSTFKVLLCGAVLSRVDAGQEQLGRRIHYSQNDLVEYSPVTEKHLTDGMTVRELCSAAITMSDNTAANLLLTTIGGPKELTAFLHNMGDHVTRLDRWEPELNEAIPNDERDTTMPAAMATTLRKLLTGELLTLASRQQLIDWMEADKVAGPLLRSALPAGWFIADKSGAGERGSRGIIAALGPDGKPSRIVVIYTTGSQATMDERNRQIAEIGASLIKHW

[5] = loss of viability in HepG2 cells – cell-based, CellTiter-Glo, cherry-picked, cytotoxicity control for Shn3 inhibitor project, dose response (AID 624134); type: functional
[6] = Fluorescence-based cell-based high throughput dose response assay for inhibitors of the interaction of nucleotide-binding oligomerization domain containing 2 (NOD2) and the receptor-interacting serine-threonine kinase 2 (RIPK2).; type: functional; details: Homo sapiens
[7] = target: T1, Protein RecA (Mycobacterium tuberculosis, UniProt P9WHJ3); test: Fluorescence Cell-Free Homogeneous Dose Retest to Identify Inhibitors of RecA-Intein Splicing Activity. [Related pubchem assays (depositor defined):AID2097, AID2223, AID489010, AID492950]; type: functional
T1 sequence (P9WHJ3 whole entry): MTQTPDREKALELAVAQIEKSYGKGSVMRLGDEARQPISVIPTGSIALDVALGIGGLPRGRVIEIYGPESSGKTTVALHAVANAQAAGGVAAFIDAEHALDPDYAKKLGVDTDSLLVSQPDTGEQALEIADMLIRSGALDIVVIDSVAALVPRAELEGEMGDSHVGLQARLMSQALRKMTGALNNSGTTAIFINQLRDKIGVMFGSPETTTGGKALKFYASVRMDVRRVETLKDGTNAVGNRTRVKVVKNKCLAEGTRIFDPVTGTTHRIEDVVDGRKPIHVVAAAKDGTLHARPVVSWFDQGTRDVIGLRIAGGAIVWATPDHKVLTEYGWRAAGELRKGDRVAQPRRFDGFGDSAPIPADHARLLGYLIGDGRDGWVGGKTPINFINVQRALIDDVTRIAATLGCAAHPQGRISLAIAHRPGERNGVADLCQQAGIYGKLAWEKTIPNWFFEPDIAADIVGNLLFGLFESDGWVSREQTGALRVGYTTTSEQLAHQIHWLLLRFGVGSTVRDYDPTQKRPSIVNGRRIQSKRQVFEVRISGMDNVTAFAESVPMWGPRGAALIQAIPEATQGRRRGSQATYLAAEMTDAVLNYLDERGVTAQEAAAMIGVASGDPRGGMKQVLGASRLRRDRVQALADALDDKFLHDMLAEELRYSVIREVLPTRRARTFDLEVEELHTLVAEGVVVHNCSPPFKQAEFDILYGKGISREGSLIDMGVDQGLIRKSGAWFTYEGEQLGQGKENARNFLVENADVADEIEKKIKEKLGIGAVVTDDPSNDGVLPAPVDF

[8] = reduced cellular PGC1a acetyl-lysine signal – cell-based, cherry-picked samples, dose response (AID 720514); type: functional;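 further: potency may reflect raised or lowered acetylation signal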
[9] = target: T2, Replicative DNA helicase DnaB (Mycobacterium tuberculosis, UniProt P9WMR3); test: DnaB intein splicing inhibitors, dose response, biochemical, cell-free fluorescence (AID 449749); type: functional
T2 sequence (P9WMR3 whole entry): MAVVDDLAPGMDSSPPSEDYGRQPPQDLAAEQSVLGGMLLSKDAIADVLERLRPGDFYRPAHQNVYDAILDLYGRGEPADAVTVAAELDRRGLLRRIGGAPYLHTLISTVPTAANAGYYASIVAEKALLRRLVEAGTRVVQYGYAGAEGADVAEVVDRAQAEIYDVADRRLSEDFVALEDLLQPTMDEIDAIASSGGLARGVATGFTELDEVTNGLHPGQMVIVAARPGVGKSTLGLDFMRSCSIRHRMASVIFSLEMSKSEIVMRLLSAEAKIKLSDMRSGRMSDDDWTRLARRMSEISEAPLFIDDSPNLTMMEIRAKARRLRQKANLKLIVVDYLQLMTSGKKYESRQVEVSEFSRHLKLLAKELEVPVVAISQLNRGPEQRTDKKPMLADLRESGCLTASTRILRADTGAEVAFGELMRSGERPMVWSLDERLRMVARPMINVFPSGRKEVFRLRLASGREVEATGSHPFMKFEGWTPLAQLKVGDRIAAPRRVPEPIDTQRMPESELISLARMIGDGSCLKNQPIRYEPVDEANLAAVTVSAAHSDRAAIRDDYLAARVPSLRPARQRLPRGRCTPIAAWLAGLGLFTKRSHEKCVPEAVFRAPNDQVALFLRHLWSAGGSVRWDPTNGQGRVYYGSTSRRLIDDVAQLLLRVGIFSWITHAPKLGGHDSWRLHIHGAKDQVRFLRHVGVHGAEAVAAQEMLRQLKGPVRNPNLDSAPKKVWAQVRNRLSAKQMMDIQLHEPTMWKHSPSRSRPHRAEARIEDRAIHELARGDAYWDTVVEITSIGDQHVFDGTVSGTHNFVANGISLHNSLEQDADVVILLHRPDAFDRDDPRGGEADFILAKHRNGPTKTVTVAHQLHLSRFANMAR

[10] = target: T3, Sentrin-specific protease 8 (Homo sapiens, UniProt Q96LD8); type: functional
T3 sequence (Q96LD8 whole entry): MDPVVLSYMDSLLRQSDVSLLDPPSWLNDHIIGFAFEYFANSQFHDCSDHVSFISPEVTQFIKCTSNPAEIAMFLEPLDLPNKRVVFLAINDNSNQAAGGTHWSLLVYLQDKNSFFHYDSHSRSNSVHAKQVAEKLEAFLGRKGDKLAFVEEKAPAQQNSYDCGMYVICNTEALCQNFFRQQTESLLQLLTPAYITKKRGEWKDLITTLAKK

[11] = target: T3, Sentrin-specific protease 8; type: functional; remark: listed apart in the source
[12] = target: T4, Rac GTPase-activating protein 1 (Homo sapiens, UniProt Q9H0H5); test: blockers of MgcRacGAP-driven Rac1 GTP hydrolysis – biochemical, ADP Hunter fluorescence, primary and confirmatory, confirmation (AID 624330); type: functional
T4 sequence (Q9H0H5 whole entry): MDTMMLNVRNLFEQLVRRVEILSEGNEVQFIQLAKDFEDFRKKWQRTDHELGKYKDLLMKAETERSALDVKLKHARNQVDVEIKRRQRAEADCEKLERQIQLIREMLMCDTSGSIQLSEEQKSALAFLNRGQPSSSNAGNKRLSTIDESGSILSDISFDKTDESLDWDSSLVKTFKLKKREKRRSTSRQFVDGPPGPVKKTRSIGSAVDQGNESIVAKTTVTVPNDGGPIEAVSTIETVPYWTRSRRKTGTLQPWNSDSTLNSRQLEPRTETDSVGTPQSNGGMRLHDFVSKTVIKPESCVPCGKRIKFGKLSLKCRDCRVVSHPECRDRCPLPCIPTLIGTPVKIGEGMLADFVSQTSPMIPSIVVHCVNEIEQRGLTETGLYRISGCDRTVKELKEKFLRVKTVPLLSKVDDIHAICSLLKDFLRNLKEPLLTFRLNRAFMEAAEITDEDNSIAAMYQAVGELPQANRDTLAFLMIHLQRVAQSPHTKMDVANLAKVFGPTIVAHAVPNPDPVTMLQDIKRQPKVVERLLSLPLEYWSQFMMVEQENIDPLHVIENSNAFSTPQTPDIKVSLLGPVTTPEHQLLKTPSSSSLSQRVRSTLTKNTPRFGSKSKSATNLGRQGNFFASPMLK

[13] = viability loss in HeLa cells – cytotoxicity control for MgcRacGAP inhibitor project, dose response (AID 624300); type: functional
[14] = target: Induced myeloid leukemia cell differentiation protein Mcl-1 (Homo sapiens, UniProt Q07820); type: functional
Induced myeloid leukemia cell differentiation protein Mcl-1, sequence (Q07820 whole entry): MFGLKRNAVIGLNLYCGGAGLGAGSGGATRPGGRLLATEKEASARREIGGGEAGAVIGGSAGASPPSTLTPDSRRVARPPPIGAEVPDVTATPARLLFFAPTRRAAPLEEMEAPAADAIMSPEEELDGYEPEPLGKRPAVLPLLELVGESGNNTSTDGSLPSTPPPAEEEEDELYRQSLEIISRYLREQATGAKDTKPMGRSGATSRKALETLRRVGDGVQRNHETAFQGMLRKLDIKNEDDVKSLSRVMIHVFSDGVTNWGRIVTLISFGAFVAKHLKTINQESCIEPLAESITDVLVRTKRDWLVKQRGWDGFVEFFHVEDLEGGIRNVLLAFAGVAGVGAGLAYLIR

[15] = target: T5, Methionyl-tRNA synthetase, putative (Trypanosoma brucei brucei, UniProt Q38C91); type: functional, Trypanosoma brucei brucei strain 927/4 GUTat10.1
T5 sequence (Q38C91 whole entry): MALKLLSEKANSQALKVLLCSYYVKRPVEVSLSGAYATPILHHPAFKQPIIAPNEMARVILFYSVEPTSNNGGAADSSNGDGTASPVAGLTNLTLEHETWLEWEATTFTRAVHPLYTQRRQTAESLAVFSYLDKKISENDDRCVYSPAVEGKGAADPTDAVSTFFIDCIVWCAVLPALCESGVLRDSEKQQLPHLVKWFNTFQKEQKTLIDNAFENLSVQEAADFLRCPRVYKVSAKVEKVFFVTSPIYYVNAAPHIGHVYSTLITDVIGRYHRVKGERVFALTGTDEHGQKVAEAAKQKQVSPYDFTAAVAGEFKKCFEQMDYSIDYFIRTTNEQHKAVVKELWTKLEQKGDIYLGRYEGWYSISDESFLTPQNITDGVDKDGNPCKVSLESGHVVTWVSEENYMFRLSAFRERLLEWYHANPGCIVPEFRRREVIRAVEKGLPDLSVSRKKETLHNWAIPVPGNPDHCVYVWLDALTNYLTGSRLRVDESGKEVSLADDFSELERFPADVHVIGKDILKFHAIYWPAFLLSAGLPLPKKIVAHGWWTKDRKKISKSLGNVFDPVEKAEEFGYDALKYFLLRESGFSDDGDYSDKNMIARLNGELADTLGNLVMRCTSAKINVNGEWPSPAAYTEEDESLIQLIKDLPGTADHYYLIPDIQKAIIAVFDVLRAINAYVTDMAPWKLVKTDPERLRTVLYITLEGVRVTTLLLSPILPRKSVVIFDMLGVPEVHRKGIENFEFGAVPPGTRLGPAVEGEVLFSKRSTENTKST

[16] = Counterscreen for inhibitors of Trypanosoma brucei methionyl tRNA synthetase (MetRS): Luminescence-based cell-based high throughput dose response assay to identify compounds that are cytotoxic to Jurkat human T lymphocyte cells.; type: functional
[17] = Luminescence Cell-Based Dose Retest to Confirm Inhibitors of Cancer Stem Cells. [Related pubchem assays (depositor defined):AID2717, AID2721]; type: functional; details: Homo sapiens
[18] = target: T6, Zinc finger protein mex-5 (Caenorhabditis elegans, UniProt Q9XUB2); test: potency of MEX-5 RNA-binding blockers – biochemical, C. elegans, fluorescence polarization, dose response (AID 1960)
T6 sequence (Q9XUB2 whole entry): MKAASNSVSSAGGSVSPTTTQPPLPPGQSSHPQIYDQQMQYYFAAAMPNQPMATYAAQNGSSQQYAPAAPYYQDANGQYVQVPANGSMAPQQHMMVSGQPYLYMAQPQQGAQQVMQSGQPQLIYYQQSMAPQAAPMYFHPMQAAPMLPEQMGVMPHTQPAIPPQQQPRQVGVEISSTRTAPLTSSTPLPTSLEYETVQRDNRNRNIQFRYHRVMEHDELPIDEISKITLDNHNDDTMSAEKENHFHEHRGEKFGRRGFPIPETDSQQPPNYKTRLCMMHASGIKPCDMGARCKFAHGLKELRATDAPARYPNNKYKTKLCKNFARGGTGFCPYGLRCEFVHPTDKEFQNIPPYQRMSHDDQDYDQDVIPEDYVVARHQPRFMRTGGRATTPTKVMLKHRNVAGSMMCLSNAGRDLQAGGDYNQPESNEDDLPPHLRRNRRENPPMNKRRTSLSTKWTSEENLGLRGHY

[19] = target: T7, RNA-binding protein pos-1 (Caenorhabditis elegans, UniProt G5EF15); test: disruptors of C. elegans POS-1 RNA interaction – biochemical, fluorescence polarization, dose response (AID 1964);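 further: purified POS-1 fused to maltose binding protein made in E. coli; potency of compounds blocking POS-1 binding to fluorescent RNA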
T7 sequence (G5EF15 whole entry): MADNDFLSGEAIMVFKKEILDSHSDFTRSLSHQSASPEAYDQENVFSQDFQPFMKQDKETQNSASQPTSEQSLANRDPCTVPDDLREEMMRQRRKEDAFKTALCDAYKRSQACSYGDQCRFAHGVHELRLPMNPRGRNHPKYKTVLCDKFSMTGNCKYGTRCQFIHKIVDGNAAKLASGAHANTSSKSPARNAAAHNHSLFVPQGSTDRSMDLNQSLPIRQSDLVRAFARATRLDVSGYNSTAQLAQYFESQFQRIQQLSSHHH

FAD-linked sulfhydryl oxidase ALR, sequence (P55789 whole entry): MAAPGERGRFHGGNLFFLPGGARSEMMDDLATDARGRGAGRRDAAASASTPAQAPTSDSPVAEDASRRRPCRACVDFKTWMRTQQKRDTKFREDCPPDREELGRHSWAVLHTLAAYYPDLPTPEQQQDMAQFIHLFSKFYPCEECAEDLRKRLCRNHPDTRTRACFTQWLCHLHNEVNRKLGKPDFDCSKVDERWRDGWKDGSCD

## O=C(NCc1ccc2c(c1)OCO2)c1nc(S(=O)(=O)Cc2ccccc2)ncc1Cl
[1]
  AC50: 0.505 µM (active)
[2]
  AC50: 6.4 µM (active)
[3]
  AC50: 21.7 µM (active)
[4]
  IC50: 32.5 µM (inactive)
[5]
  AC50: 40.5 µM (active)
[6]
  IC50: 4.89 µM (active)
[7]
  EC50: 4.16 µM (active)
[8]
  AC50: 21.7 µM (active)
[9]
  AC50: 2.27 µM (active)

## CCNC(=O)O/N=C1\CCCCC1c1ccc([N+](=O)[O-])cc1[N+](=O)[O-] (configuration not stated)
[10]
  IC50: 27.2 µM (active)
[11]
  IC50: 14.4 µM (active)

## COc1cc(/C=N/NC(=S)Nc2cccc(S(=O)(=O)N(C)C)c2)ccc1O
[12]
  IC50: 29 µM (active)
[13]
  CC50: 100 µM (active)

## CCOC(=O)CSc1nc(N)c(C(=O)Nc2ccc(N(C)C)cc2)s1
[12]
  IC50: 31.7 µM (active)
[14]
  IC50: < 0.4 µM (active)
[13]
  CC50: 100 µM (active)

## Clc1ccccc1-c1ccc2ncnc(NCc3ccc4c(c3)OCO4)c2c1
[15]
  IC50: 30 µM (inactive)
[16]
  IC50: 83.3 µM (inactive)

## COc1ccc(-c2[nH][nH]c(=O)c2NC(=O)c2ccc([N+](=O)[O-])cc2)cc1
[10]
  IC50: 65.5 µM (inactive)
[11]
  IC50: 47.2 µM (active)

## CSc1nnc(C)c(/C=C/NOCc2cccc(F)c2)n1
[10]
  IC50: 14 µM (active)
[11]
  IC50: 69.9 µM (inactive)

## Cc1cc(-c2ccccc2)nc(N/N=C/c2ccc(O)cc2O)n1
[17]
  AC50: 6.35 µM (active)
[12]
  IC50: 69.1 µM (active)
[18]
  EC50: 54 µM (active)
[13]
  CC50: 100 µM (active)
[19]
  EC50: > 300 µM (not active)
